The values that follow come from patent US20250099488A1, “ANTI-PARASITE COMPOUNDS” (AUSTRALIAN NATIONAL UNIVERSITY, priority 2022, published 2025).

Like-named read-outs stand apart in the source and are kept apart here.

Broadly, the IC10 is the concentration at which the effect reaches the 10% level. A low value points to an effect from little substance. For orientation: IC90 means the point of the concentration-response curve where the effect stands at 90%.

One data set relates to asexual P. falciparum. The experiment in a line: Plasmodium growth inhibition assay (SYBR Safe), asexual stages. The data set is classed as cell-based, Plasmodium falciparum. To be noted: for Inhibitory effect on proliferation of asexual stages: FIG. 11D, cholesterol in ethanol, DMSO or ethyl acetate, DHEA. As for the experimental part: Compounds or solvent controls (DMSO, ethanol, or ethyl acetate) were serially diluted 2-fold across flat-bottom 96-well plates. Complete culture media without compound was used as a negative control. Chloroquine (100-200 nM) {Sigma C6628} was used as a positive control to determine background fluorescence. The parasitaemia of a culture containing predominantly ring stage parasites was counted by Giemsa smear. The parasitaemia was adjusted to 1% by addition of fresh uRBCs, and added to the plate at a final haematocrit of 1%, with 200 μL per well. The plates were incubated at 37° C. under humid microaerophilic conditions. […] Fluorescence was read at 490 nm excitation/520 nm emission on a FLUOstar Optima fluorescence plate reader {BMG Labtech}.
Growth inhibition data were normalised by subtracting background fluorescence from a no-growth control (high drug concentration or time=0 measurement as specified), and expressed as a percentage of the growth in the negative control (media alone or solvent control) either at the indicated timepoint, or to the highest measurement reached during the assay.
P. falciparum asexual parasite assays begun with ring-stage parasites at 1% parasitaemia and 1% haematocrit. 200 nM chloroquine (Sigma C6628) was used as a no-growth control. […] 17]; 8 (2):e54974).
(§1) Growth inhibition data were normalised by subtracting background fluorescence, luminescence, absorbance, or percentage of cells from a no-growth or no-viability control (high drug concentration, no-parasite control, or time=0 measurement as specified), and expressed as a percentage of the growth or cell percentage in the negative control (culture media alone or solvent control) at the indicated timepoint (or to the highest measurement reached during the assay for FIG. 15B).

The subject of data set [1] is P. falciparum CAM3.IIREV (susceptible). Put plainly: Ring stage survival assay, susceptible revertant strain. The note with it: 700 nM for six hours, then 66 hours without drug. It counts as cell-based, Plasmodium falciparum. An excerpt: (§2) The inventors tested these compounds in a ring stage survival assay, which allows the detection of resistant parasites against this […] drug and is the standard method for investigating resistance to artemisinin and its derivatives (Witkowski B, Menard D, Amaratunga C. Fairhurst R. Ring-stage Survival Assays (RSA) to evaluate the in-vitro and ex-vivo susceptibility of Plasmodium falciparum to artemisinins Procedure. Inst Pasteur du Cambodge—Natl Institutes Heal [Internet]. 2013 Sep. 11 [cited 2022 Jun. 19]; Procedure; available from: https://www.wwarn.org/sites/default/files/INV10-Standard-Operating-Procedure-Ring-Stage-Survival-Assays.pdf). This assay involves a short treatment window against newly-invaded ring stage parasites, followed by removal of drug pressure to mimic the clearance of the drug from plasma. We utilised two parasite strains: an isolate from Cambodia (CAM3.II) with a mutated Kelch-13 conferring resistance, and a genetically modified revertant of this strain (CAM3.IIREV) conferring drug susceptibility (Straimer J, Gnädig N F, Witkowski B, Amaratunga C, Duru V, Ramadani A P, et al. K13-propeller mutations confer artemisinin resistance in Plasmodium falciparum clinical isolates. Science (80-) [Internet]. 2015 Jan. 23 [cited 2022 Jun. 19]; 347(6220):428-31; available from: https://www.science.org/doi/10.1126/science.1260867).
(§3) Following tight synchronisation, CAM3.II and CAM3.IIREV ring stage parasites (0-3 hours post invasion) at 1% parasitaemia and 2% haematocrit were incubated with 700 nM of compounds or solvent-only controls for exactly six hours, before removing the drug, thoroughly washing in RPMI, and returning to culture conditions for a further 66 hours. Some cells were treated with 700 nM artesunate for 72 hours as a no-growth control. DNA replication (indicating growth) was measured at the specified time using SYBR Safe DNA Gel Stain. Microscope slide smears of each condition were stained with 10% v/v Giemsa and examined under a light microscope (1 000× magnification); with ‘viable’ (morphologically normal) and ‘non-viable’ (morphologically aberrant; vacuolated or pyknotic) parasites distinguished according to standard protocol (Witkowski B, Menard D, Amaratunga C, Fairhurst R. Ring-stage Survival Assays (RSA) to evaluate the in-vitro and ex-vivo susceptibility of Plasmodium falciparum to artemisinins Procedure. Inst Pasteur du Cambodge—Natl Institutes Heal [Internet]. 2013 Sep. 11 [cited 2022 Jun. 19]; Procedure. Available from: https://www.wwam.org/sites/default/files/INV10-Standard-Operating-Procedure-Ring-Stage-Survival-Assays.pdf). Images were captured using a Leica ICC50 camera, with a resolution of 76 nm per pixel.

Data set [2] has as its system P. falciparum CAM3.II (mutated Kelch-13, resistant). The experiment in a line: Ring stage survival assay, resistant strain. It counts as cell-based, Plasmodium falciparum. To be noted: 700 nM for six hours, then 66 hours without drug; for Parasite survival (DNA replication): FIG. 17B.
Text: as §2, §3

A short description of data set [3]: HEK293 cell viability assay (MTT). The data set is classed as cell-based, human. To be noted: human, 96 hours, FIG. 16H / FIG. 18C, read-out: IC50, HEK293 cytotoxicity. As for the experimental part:
HEK293 cell viability assays began with 5000 cells per well. 10 μg/mL cycloheximide was used as a no-growth control. Metabolic capacity (indicating viability) was measured by incubation with 0.45 mg/mL methylthiazolyldiphenyl-tetrazolium bromide (MTT; Sigma M2128) for two hours followed by crystal solubilisation in SDS.

Data set [4] has as its system P. falciparum gametocytes (stage III-IV). The experiment in a line: Gametocyte viability assay (MitoTracker, flow cytometry). The data set is classed as cell-based, Plasmodium falciparum. The note with it: Plasmodium falciparum, read-out: IC50, gametocyte viability.
Text: Gametocyte assays begun eight days post-invasion (Stage III-IV).
as §1

A further data set deals with P. berghei liver stages. The experiment in a line: P. berghei liver stage growth assay (luciferase) in Huh7 cells. The data set is classed as cell-based, Plasmodium berghei. The note with it: Plasmodium berghei, Huh-7; 48 hours of treatment from sporozoite inoculation, Huh7 cells, FIG. 16A. As for the experimental part:
(§4) Huh7 cells were seeded at a density of 10 000 cells per well, or 20 000 per collagen-coated coverslip. […] Uninfected wells served as a control for background luminescence. […] Data are presented as a percentage of the size or parasite number of the solvent control to normalize for differences between experiments. For cell images presented in the figure, images were collected under optimal exposure settings to ensure features were visible. Individual cells were cropped from larger images with Fiji ImageJ, and the brightness was adjusted while ensuring that no fluorescence was removed. No other manipulations were performed.
as §1

For data set [5], the system named is P. berghei liver stage schizonts. The experiment in a line: P. berghei liver stage parasite size and number (fluorescence microscopy) in Huh7 cells. The data set is classed as cell-based, Plasmodium berghei. To be noted: 3 μM, 48 hours post-infection, vs DMSO. The method, then: as §4
Data set [6] deals with Toxoplasma gondii tachyzoites. Put plainly: Toxoplasma growth inhibition assay (tdTomato fluorescence). To be noted: Toxoplasma gondii, 72 h, read-out: IC5 against T. gondii. It counts as cell-based. As for the experimental part: Fluorescent Toxoplasma gondii parasites were inoculated into an optical bottom 96-well plate containing confluent human foreskin fibroblast (HFF) host cells at a density of 2000 parasites/well, with a serial dilution of each compound, or media/DMSO alone. Plates were measured daily with a FluoStar Optima fluorescence plate reader at 540 nm excitation/590 nm emission for seven days, and the background fluorescence from the time 0 reading was subtracted from all other measurements.
Fluorescence was measured daily with a FluoStar Optima fluorescence plate reader for one week, and the background fluorescence from the time 0 reading was subtracted from all other measurements.
as §1

Where [7] appears, read: Plasmodium falciparum, 24 hours, starting with ring-stage parasites, FIG. 14B, read-out: IC50.
The mark [8] stands for this setting: Plasmodium falciparum, 72 hours, FIG. 18B, read-out: IC50.

Take `Cc1ncc([N+](=O)[O-])n1CCOC(=O)CCC(=O)O[C@H]1CC[C@H]2[C@@H]3CC=C4C[C@@H](O)CC[C@]4(C)[C@H]3CC[C@]12C` [BC62D, 3β-Hydroxyandrost-5-en-17β-yl succinate-metronidazole diester]: in the data set with asexual P. falciparum (Plasmodium falciparum, Example 4, FIG. 20B, read-out: IC50), the IC50 came to 24 µM.
On to `CC(C)CCC[C@@H](C)[C@H]1CC[C@H]2[C@@H]3CC=C4C[C@@H](OC(=O)CCC(=O)OC(C)C)CC[C@]4(C)[C@H]3CC[C@]12C` [C-3-link, 3β-Succinate-(propan-2-yldiester)-cholest-5-ene], for which, in the data set on asexual P. falciparum (24 hours), the “No inhibition of parasite growth up to (concentration)” value is over 200 µM. The IC50 in the data set on asexual P. falciparum (setting [7]) is over 200 µM.
Take `COc1cc(NC(C)CCCNC(=O)CCC(=O)O[C@H]2CC[C@@]3(C)C(=CC[C@H]4[C@@H]5CC[C@H]([C@H](C)CCCC(C)C)[C@@]5(C)CC[C@@H]43)C2)c2ncccc2c1` (stereo partly drawn) [C-3-prim, Cholester-3-yl succinate-primaquine amide]: the “No inhibition of parasite growth up to (concentration)” value with asexual P. falciparum (24 hours) is over 100 µM. Also, the IC50 in the data set with asexual P. falciparum (setting [7]) is over 200 µM.
As to `C[C@H]1[C@H](OC(=O)CCC(=O)O[C@H]2CC[C@H]3[C@@H]4CC=C5C[C@@H](O)CC[C@]5(C)[C@H]4CC[C@]23C)O[C@@H]2O[C@]3(C)CC[C@H]4[C@H](C)CC[C@@H]1[C@@]24OO3` [C-17-art, 3β-Hydroxyandrost-5-en-17β-yl succinate-artesunate ester], the “Morphology in Giemsa-stained smears” value in data set [1] is recorded as “only morphologically aberrant parasites were present”. In data set [2], the “Morphology in Giemsa-stained smears” value was “only aberrant, non-viable parasites were visible” and the “Parasite survival (DNA replication)” value is on record as “kills all cells”.
`C[C@]12CC[C@H](O)CC1=CC[C@@H]1[C@@H]2CC[C@]2(C)C(=O)CC[C@@H]12` [DHEA, 3β-Hydroxyandrost-5-en-17-one, reference compound]: the “Inhibitory effect on proliferation of asexual stages” value in the data set with asexual P. falciparum is listed as “influences proliferation, although at relatively high concentrations”. For the same molecule, the IC50 in the data set on asexual P. falciparum (setting [8]) amounted to 150 µM.
Consider `Cc1ncc([N+](=O)[O-])n1CCO` [Metronidazole, metronidazole, reference compound], for which, in the data set with asexual P. falciparum (Example 4, FIG. 20B), the IC50 entry was “almost no effect in the range tested”.
For `CC1CCC2C(C)C(OC(=O)CCC(=O)OC3CCC4C5CC=C6CC(O)CCC6(C)C5CCC34C)OC3OC4(C)CCC1C32OO4` (stereo not drawn) [PAYb076a], the “Effect of steroid-artesunate conjugates on proliferation” value in the data set on asexual P. falciparum (72 hrs, FIG. 13B/13C) is “better activity than coupling via C3”.
As for `CC(C)OC(=O)CCC(=O)O[C@@H]1O[C@@H]2O[C@]3(C)CC[C@H]4[C@H](C)CC[C@@H]([C@H]1C)[C@@]24OO3` [art-link, Propan-2-yl artesunate ester], the “Morphology in Giemsa-stained smears” value in data set [1] is listed as “only morphologically aberrant parasites were present”. In addition, in data set [2], the “Morphology in Giemsa-stained smears” value was “a combination of morphologically normal parasites and morphologically aberrant pyknotic or vacuolated forms”; the “Parasite survival (DNA replication)” value is recorded as “showed a trend to improved efficacy over artesunate”.
`CC(C)CCC[C@@H](C)[C@H]1CC[C@H]2[C@@H]3CC=C4C[C@@H](O)CC[C@]4(C)[C@H]3CC[C@]12C` [cholesterol, Cholesterol, reference compound]: the “Inhibitory effect on proliferation of asexual stages” value in the data set on asexual P. falciparum is reported as “No inhibitory effect could be detected in the concentration range being used”. For the same molecule, the IC50 in the data set with asexual P. falciparum (setting [8]) is over 400 µM.
On to `CC(C)(C)OOC(C)(C)C` [di-ter-butyl peroxide, di-tert-butyl peroxide, reference compound], for which, in the data set on asexual P. falciparum (72 hours, FIG. 18B, read-out: IC50), the IC50 is over 25 µM.
In the case of `COc1cc(NC(C)CCCNC(=O)CCC(=O)OC(C)C)c2ncccc2c1` (stereo not drawn) [prim-link, Propan-2-yl succinate-primaquine amide], the IC50 at 96 h in data set [3] (HEK293 cells) was 13.3 µM. In addition, the IC50 in data set [4] (48 hours of incubation, stage III-IV, FIG. 14C) was over 100 µM.
Take `COc1cc(NC(C)CCCN)c2ncccc2c1` (stereo not drawn) [primaquine, reference compound]: the IC50 was found to be 2.9 µM in the data set with P. berghei liver stages; 63.5 µM in data set [4] (48 h); 3.2 µM in the data set on asexual P. falciparum (Plasmodium falciparum, 72 h); 9.7 µM in data set [6]. In data set [3], the IC50 at 96 h is 10.6 µM. For the same molecule, the “Hill slope of inhibitory curve” value is given as −1.65 in the data set on asexual P. falciparum (24 hours) and −1.48 in the data set with asexual P. falciparum (72 hours). The molecule also showed an IC10 in the data set with asexual P. falciparum (FIG. 8B, Example 2) of 12 µM. The molecule also returned an IC90 in the data set with asexual P. falciparum (Plasmodium falciparum, 24 h) of 41 µM. Besides, the “Smaller parasite size (reduction)” value in data set [5] amounted to 61%.
